Measured values reported in US10947216B2, “Amide compounds and method for making and using” (Rigel Pharmaceuticals, Inc., priority 2016, dated 2021).
Counter-ions that a name gives are not always drawn.

Columns and labels:
[1] = test system: IL-23 (p19/p40); assay: IL23-p19 ELISA, dendritic cells (DC differentiated from human PBMC, IFNγ primed), LPS stimulated; type: cell-based; conditions: Dendritic cell, human PBMC-derived dendritic cells, 1 h compound pre-incubation, LPS 1 μg/ml 18 hours, 10 pt
Protocol: Compound Screening Using DC Cells
I. Differentiation of PBMC's to DC Cells:
After 2 hours, the media including floating cells was aspirated out carefully and 12 ml of fresh RPMI media (10% FBS) containing GMCSF (100 ng/ml) and IL4 (20 ng/ml) was added, and the flask was kept in a 37° C. incubator for 7 days.
After 3 days, fresh GMCSF (100 ng/ml) and IL4 (20 ng/ml) were added to the flask and the incubation continued. After 7 days, the fully differentiated cells were harvested by spinning down (1200 rpm/5 min) and aspirating the media. The cells were suspended in fresh RPMI media (10% FBS) containing 50 ng/ml IFNγ (1000 U/ml) and then plated (50K/well in 100 μl) onto a white clear bottom 96 well plate and left in a 37° C. incubator for 24 hours.
II. Addition of Compounds:
After 24 hours incubation, 100 μl of RPMI media was added containing 2× concentrated test compound per well to the above cell-culture media (final concentration becomes 1×) and the plates were pre-incubated for 1 hour at 37° C. before stimulating with LPS.
The mixture was shaken and incubated the plates at 37° C. for an additional 18 hours.
155 μl of the supernatant was harvested from each well carefully (without the tip touching the bottom of the well) and to the remaining 50 μl/well of the cell culture plate was added 50 μl of Cell Titer Glo reagent. The mixture was incubated for 1-2 minutes on a shaker and the plate was read for luminescence intensity to determine the compound cytotoxicity. The cell culture supernatant collected above was used to carry out IL23 ELISA (65 μl—Supernatant) and IL10 ELISA (90 μl—Supernatant) as described below.
Human IL-23 (p19/p40) ELISA Protocol (e-Biosciences)
To 10.5 ml PBS add 50 μl of anti-IL23 (p19) was added capture antibody (2.5 μg/ml). The mixture was mixed well and 100 μl of the coating solution was added to each well of the 96 well white plates from Pierce. The wells were covered and incubated overnight at 4° C.
The anti-IL23 (p19)-antibody-coated plates were washed 2× using TBST (use plate washer) and blocked using 200 μl of 0.5% Casein for 1.5-2 hours at room temperature with shaking.
Addition of Supernatant and Detection:
The plates were washed 2× using TBST and the supernatant was transferred (65 μl/well) to the above pre-blocked/IL23(p19)-antibody-coated 96 well plate, and incubated at room temperature for 1.5 hours with shaking.
The plates were washed 4× using TBST (plate washer) and 100 μl/well detection antibody solution prepared from 2 μl of biotin labeled anti-IL-12 (p40/p70) antibody in 11 ml 1% BSA/PBS solution (1-5000 dilution) was added. The plates were incubated for 1 hour with shaking at Room temperature.
Again, the plates were washed 4× with TBST and 100 μl of HRP labeled Streptavidin (R&D Systems) solution (10 μl/10 ml 1% BSA solution) was added, and the plates were incubated at room temperature for another 45 minutes with shaking.
After 45 minutes, the plates were washed with TBST 4× and 100 μl/well Super Signal ELISA Pico Chemiluminescent Substrate from Pierce (3.5 ml A+3.5 ml B+3.5 ml MQ water) was added. The plates were shaken for 1-2 minutes then read on a plate reader.

[2] = test system: IL-23p19; assay: LPS Induced IL23p19 in THP-1 Cells (with IFNγ Primed) Assay; type: cell-based, human; conditions: Homo sapiens, THP-1, THP-1 cells, IFNγ (50 ng/mL) primed, 1 hour compound pre-incubation, LPS 1 ug/mL 18 hours, 10 pt; read-out: IL23-p19 ELISA, THP1-IFNy, LPS, 10 pt EC50
How it was run: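 THP-1 cells (50K/well) primed ~18 h with IFNγ (50 ng/mL) in RPMI/10% FBS, then incubated with compound in duplicate for 18 h at 37° C. Supernatant IL-23p19 measured by chemiluminescent sandwich ELISA, giving EC50 by curve fitting. Toxicity assessed in parallel on the remaining cells by Cell Titer Glo.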

| EC50 [1] [µM] | EC50 [2] [µM] | Compound |
| --- | --- | --- |
| 2.89 | 1.37 | Cc1cncc(-c2cccc(C(=O)Nc3cn(C4CCOCC4)nc3-c3ccccn3)n2)c1 [Compound I-164, 5′-methyl-N-(3-(pyridin-2-yl)-1-(tetrahydro-2H-pyran-4-yl)-1H-pyrazol-4-yl)-[2,3′-bipyridine]-6-carboxamide] |
| 0.342 | 7.02 | Cn1cc(NC(=O)c2cccc(-c3cncc(NC4CC4)c3)n2)c(-c2ccccn2)n1 [Compound I-27, 5′-(cyclopropylamino)-N-(1-methyl-3-(pyridin-2-yl)-1H-pyrazol-4-yl)-[2,3′-bipyridine]-6-carboxamide] |
| 33.7 | 6.2 | CN1CCN(c2cncc(-c3cccc(C(=O)Nc4cn(C)nc4-c4ccccn4)n3)c2)CC1 [Compound I-38, N-(1-methyl-3-(pyridin-2-yl)-1H-pyrazol-4-yl)-5′-(4-methylpiperazin-1-yl)-[2,3′-bipyridine]-6-carboxamide] |
| 7.88 | 77.2 | Cn1cc(NC(=O)c2cccc(C3=CCCNC3)n2)c(-c2ccccn2)n1 [Compound I-65, N-(1-methyl-3-(pyridin-2-yl)-1H-pyrazol-4-yl)-1′,2′,5′,6′-tetrahydro-[2,3′-bipyridine]-6-carboxamide] |
| 1.28 | 0.325 | O=C(Nc1cn(C2COC2)nc1-c1ccccn1)c1cccc(-c2cccnc2)n1 [Compound I-112, N-(1-(oxetan-3-yl)-3-(pyridin-2-yl)-1H-pyrazol-4-yl)-[2,3′-bipyridine]-6-carboxamide] |
| 0.0662 | 3.39 | COCCOCCn1cc(NC(=O)c2cccc(-c3cc[nH]n3)n2)c(-c2ccccn2)n1 [Compound I-150, N-(1-(2-(2-methoxyethoxy)ethyl)-3-(pyridin-2-yl)-1H-pyrazol-4-yl)-6-(1H-pyrazol-3-yl)picolinamide formate] |
| 2.16 | 1.77 | Cn1cc(NC(=O)c2cccc(-c3cn[nH]c3)n2)c(N2CCCCC2)n1 [Compound I-73, N-(1-methyl-3-(piperidin-1-yl)-1H-pyrazol-4-yl)-6-(1H-pyrazol-4-yl)picolinamide] |
| 9.85 | 64.1 | Cn1cc(NC(=O)c2cccc(-c3ccncc3)n2)c(-c2cnccn2)n1 [Compound I-100, N-(1-methyl-3-(pyrazin-2-yl)-1H-pyrazol-4-yl)-[2,4′-bipyridine]-6-carboxamide] |
| 4.12 | 5.9 | Cn1cc(NC(=O)c2cccc(-c3cc[nH]c3)n2)c(-c2ccccn2)n1 [Compound I-11, N-(1-methyl-3-(pyridin-2-yl)-1H-pyrazol-4-yl)-6-(1H-pyrrol-3-yl)picolinamide] |
| 2.42 | 0.557 | COCCCn1cc(NC(=O)c2cccc(-c3cncc(C)c3)n2)c(-c2ccccn2)n1 [Compound I-169, N-(1-(3-methoxypropyl)-3-(pyridin-2-yl)-1H-pyrazol-4-yl)-5′-methyl-[2,3′-bipyridine]-6-carboxamide] |
| 0.628 | 0.463 | COCCOCCn1cc(NC(=O)c2cccc(-c3cn[nH]c3)n2)c(-c2ccccn2)n1 [Compound I-153, N-(1-(2-(2-methoxyethoxy)ethyl)-3-(pyridin-2-yl)-1H-pyrazol-4-yl)-6-(1H-pyrazol-4-yl)picolinamide formate] |
| 6.51 | 4.92 | COCCOCCn1cc(NC(=O)c2cccc(Nc3ccc4[nH]ncc4c3)n2)c(-c2ccccn2)n1 [Compound I-154, 6-((1H-indazol-5-yl)amino)-N-(1-(2-(2-methoxyethoxy)ethyl)-3-(pyridin-2-yl)-1H-pyrazol-4-yl)picolinamide formate] |
| 0.198 | 0.469 | Cc1cc(-c2cccc(C(=O)Nc3cn(C4COC4)nc3-c3ccccn3)n2)[nH]n1 [Compound I-136, 6-(3-methyl-1H-pyrazol-5-yl)-N-(1-(oxetan-3-yl)-3-(pyridin-2-yl)-1H-pyrazol-4-yl)picolinamide] |
| 0.178 | 0.281 | Cn1cc(NC(=O)c2cccc(-c3cn[nH]c3)n2)c(-c2ccccn2)n1 [Compound I-9, N-(1-methyl-3-(pyridin-2-yl)-1H-pyrazol-4-yl)-6-(1H-pyrazol-4-yl)picolinamide] |
| 3.17 | 7.58 | Cn1cc(NC(=O)c2cccc(-c3cn[nH]c3)n2)c(N2CCCC2)n1 [Compound I-72, N-(1-methyl-3-(pyrrolidin-1-yl)-1H-pyrazol-4-yl)-6-(1H-pyrazol-4-yl)picolinamide] |
| 2.41 | 6.17 | COCCOCCn1cc(NC(=O)c2cccc(Nc3ccc4n[nH]cc4c3)n2)c(-c2ccccn2)n1 [Compound I-155, 6-((2H-indazol-5-yl)amino)-N-(1-(2-(2-methoxyethoxy)ethyl)-3-(pyridin-2-yl)-1H-pyrazol-4-yl)picolinamide formate] |
| 7.07 | 19.5 | CN1CCN(c2ccc(-c3nn(C)cc3NC(=O)c3cccc(-c4cn[nH]c4)n3)nc2)CC1 [Compound I-174, N-(1-methyl-3-(5-(4-methylpiperazin-1-yl)pyridin-2-yl)-1H-pyrazol-4-yl)-6-(1H-pyrazol-4-yl)picolinamide] |
| 0.878 | 1.11 | CN(C)c1cncc(-c2cccc(C(=O)Nc3cn(C)nc3-c3ccccn3)n2)c1 [Compound I-35, 5′-(dimethylamino)-N-(1-methyl-3-(pyridin-2-yl)-1H-pyrazol-4-yl)-[2,3′-bipyridine]-6-carboxamide] |
| 10.7 | 41.1 | COCCOCCn1cc(NC(=O)c2cccc(-c3cc4ccc(OC)cc4[nH]3)n2)c(-c2ccccn2)n1 [Compound I-147, 6-(6-methoxy-1H-indol-2-yl)-N-(1-(2-(2-methoxyethoxy)ethyl)-3-(pyridin-2-yl)-1H-pyrazol-4-yl)picolinamide formate] |
| 1.81 | 1.07 | Cc1cncc(-c2cncc(C(=O)Nc3cn(C)nc3-c3ccccn3)n2)c1 [Compound I-121, N-(1-methyl-3-(pyridin-2-yl)-1H-pyrazol-4-yl)-6-(5-methylpyridin-3-yl)pyrazine-2-carboxamide] |
| 6.84 | 9.01 | CN1CCN(c2ccc(-c3nn(C)cc3NC(=O)c3cccc(-c4cc[nH]n4)n3)nc2)CC1 [Compound I-175, N-(1-methyl-3-(5-(4-methylpiperazin-1-yl)pyridin-2-yl)-1H-pyrazol-4-yl)-6-(1H-pyrazol-3-yl)picolinamide] |
| 0.0347 | 0.169 | Cn1cc(NC(=O)c2cccc(-c3cncc(N)c3)n2)c(-c2ccccn2)n1 [Compound I-25, 5′-amino-N-(1-methyl-3-(pyridin-2-yl)-1H-pyrazol-4-yl)-[2,3′-bipyridine]-6-carboxamide] |
| 1.79 | 2.29 | Cn1cc(NC(=O)c2cccc(-c3cncc(OC4CCOCC4)c3)n2)c(-c2ccccn2)n1 [Compound I-23, N-(1-methyl-3-(pyridin-2-yl)-1H-pyrazol-4-yl)-5′-((tetrahydro-2H-pyran-4-yl)oxy)-[2,3′-bipyridine]-6-carboxamide] |
| 1.77 | 0.349 | Cn1cc(NC(=O)c2cccc(-c3cnc4[nH]ccc4c3)n2)c(-c2ccccn2)n1 [Compound I-44, N-(1-methyl-3-(pyridin-2-yl)-1H-pyrazol-4-yl)-6-(1H-pyrrolo[2,3-b]pyridin-5-yl)picolinamide] |
